Measured values as given in PMC2996728 (Archives of biochemistry and biophysics, 2009).

Target: T1, Microsomal glutathione transferase 1 (MGST1) (Rattus norvegicus, UniProt P08011)
T1 sequence (P08011 2-155): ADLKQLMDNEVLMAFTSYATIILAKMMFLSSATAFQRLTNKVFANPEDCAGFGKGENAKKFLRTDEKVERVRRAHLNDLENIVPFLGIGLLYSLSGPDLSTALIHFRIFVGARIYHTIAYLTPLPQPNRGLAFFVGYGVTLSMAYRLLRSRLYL
Assay: equilibrium dialysis
Assay type: binding

N[C@@H](CCC(=O)N[C@@H](CSc1ccc([N+](=O)[O-])cc1[N+](=O)[O-])C(=O)NCC(=O)O)C(=O)O [GSDNB, 1-S-glutathionyl-2,4-dinitrobenzene]
Kd: 320 ± 50 µM
